Measured values taken from BindingDB's records for doi:10.1016/0014-2999(95)00786-5 (Cnrs Upr 9023, 1996).
Where “and” joins values, the source holds several entries; their conditions need not be identical. Equal entries are not always repeated. Structures can show the parent of a compound that is named as a salt.

What was measured:
[1] = target: 5-hydroxytryptamine receptor 4 (Homo sapiens, UniProt Q13639)
[2] = target: 5-hydroxytryptamine receptor 4 (Mus musculus, UniProt P97288)
Chain of 5-hydroxytryptamine receptor 4 (Mus musculus, UniProt P97288) (P97288 whole entry): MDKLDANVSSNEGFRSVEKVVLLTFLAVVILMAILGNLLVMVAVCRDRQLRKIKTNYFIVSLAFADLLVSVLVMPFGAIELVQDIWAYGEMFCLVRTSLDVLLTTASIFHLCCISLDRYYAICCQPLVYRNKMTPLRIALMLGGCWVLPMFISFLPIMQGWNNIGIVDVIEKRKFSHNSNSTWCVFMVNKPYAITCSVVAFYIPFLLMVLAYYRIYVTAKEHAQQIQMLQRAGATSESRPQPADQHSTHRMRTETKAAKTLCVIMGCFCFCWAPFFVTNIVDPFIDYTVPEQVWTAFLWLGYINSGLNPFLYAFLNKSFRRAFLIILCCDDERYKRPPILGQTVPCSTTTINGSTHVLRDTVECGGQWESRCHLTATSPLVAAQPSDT

Chain of 5-hydroxytryptamine receptor 4 (Homo sapiens, UniProt Q13639) (Q13639 whole entry): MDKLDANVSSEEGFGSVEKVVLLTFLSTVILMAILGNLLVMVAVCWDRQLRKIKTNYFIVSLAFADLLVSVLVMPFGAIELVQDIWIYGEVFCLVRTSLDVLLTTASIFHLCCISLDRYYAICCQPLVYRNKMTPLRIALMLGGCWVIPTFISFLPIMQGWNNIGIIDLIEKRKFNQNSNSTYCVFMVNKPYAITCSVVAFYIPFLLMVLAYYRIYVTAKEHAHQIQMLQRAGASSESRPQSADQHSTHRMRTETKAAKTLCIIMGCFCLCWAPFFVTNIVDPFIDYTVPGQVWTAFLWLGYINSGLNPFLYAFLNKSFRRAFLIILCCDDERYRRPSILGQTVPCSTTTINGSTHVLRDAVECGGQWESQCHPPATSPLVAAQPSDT

Compound	Ki [1]	Ki [2]
CC(C)n1c(=O)n(C(=O)NC2C[C@H]3CC[C@@H](C2)N3C)c2ccccc21 (stereo partly drawn) [BIMU 8]	79.4 nM	25.1 nM
NCCc1c[nH]c2ccc(O)cc12 [[3H]-5-HT]	–	79.4 nM
COc1cc(N)c(Cl)cc1C(=O)NC1CCN(CCCC(=O)N2CCC(N(C)C)CC2)CC1OC (stereo not drawn) [4-Amino-5-chloro-N-(1-{4-[4-(dimethylamino)-1-piperidinyl]-4-oxobutyl}-3-methoxy-4-piperidinyl)-2-methoxybenzamide]	–	1.38 nM
CCN(CC)CCNC(=O)c1cc(Cl)c(N)cc1OC [4-amino-5-chloro-N-[2-(diethylamino)ethyl]-2-methoxy-benzamide;hydrochloride]	–	3980 nM
CCCC[N+]12CCC(C1)C(NC(=O)c1cc(Cl)c(N)cc1OC)CC2 (stereo not drawn) [SB205149]	–	37.1 nM
COc1cc(N)c(Cl)cc1C(=O)NC1CCN(Cc2ccccc2)CC1 [4-Amino-N-(1-benzyl-piperidin-4-yl)-5-chloro-2-methoxy-benzamide(Clebopride)]	–	53.7 nM
COc1ccc2[nH]cc(CCN)c2c1 [tryptamine, 5-Methoxy]	501 nM	525 nM
COc1ccc2[nH]c(=O)n(C(=O)OC3CC4CCC(C3)N4C)c2c1 (stereo not drawn) [DAU 6285]	63.1 nM	26.9 nM
Cn1cc(C(=O)OCC2CCN(CCNS(C)(=O)=O)CC2)c2ccccc21 [GR 113808]	–	0.31 nM
COc1cc(N)c(Cl)cc1C(=O)NC1CN2CCC1CC2 (stereo not drawn) [ZACOPRIDE,R]	–	1070 nM and 302 nM and 224 nM
COc1cc(N)c(Cl)cc1C(=O)NC1CCN(CCCOc2ccc(F)cc2)CC1OC (stereo not drawn) [4-amino-5-chloro-N-(1-(3-(4-fluorophenoxy)propyl)-3-methoxypiperidin-4-yl)-2-methoxybenzamide]	–	51.3 nM
CCN(CC)CCOC(=O)c1cc(Cl)c(N)cc1OC [SDZ-205557]	6.3 nM	6.3 nM
CN1C2CCC1CC(NC(=O)n1c(=O)[nH]c3ccccc31)C2 (stereo not drawn) [DAU 6215]	–	224 nM
COc1ccc2[nH]cc(C3=CCCNC3)c2c1	–	603 nM
COc1cc(N)c(Cl)cc1C(=O)NC1CCN2CCCC1C2 (stereo not drawn) [NSC_3035240]	–	97.7 nM
COc1[nH]c2ccc(F)cc2c1C(=O)OCC1CCN(CCNS(C)(=O)=O)CC1 [GR-125487]	–	0.03 nM
CCn1c(=O)n(C(=O)NC2CC3CCC(C2)N3C)c2ccccc21 (stereo not drawn) [BIMU 1]	–	53.7 nM
CN1C2CCC1CC(OC(=O)c1c[nH]c3ccccc13)C2 (stereo not drawn)	200 nM	158 nM
